# Assay results reported in patent US5830855A, “Lipodepsipeptides as antifungal and fungicidal agents” (priority 1996, dated 1998).
# How the values were obtained:
# Candida albicans = assay: Broth microdilution MIC; assay type: cell-based
# Experimental: (§1) Medium: Liquid RPMI 1640 (RPMI) medium with L-glutamine and without sodium bicarbonate (Sigma Chemical Co., R-6504; St. Louis, Mo.) buffered with 0.165M MOPS (34.54 g/liter) was used for in vitro antifungal tests. The medium was adjusted to pH 7.0 with 10M NaOH and filter sterilized.
# (§2) Lipodepsipeptide Dilutions: All stock drug solution concentrations were at least 10-fold higher than the highest concentration tested. AmB, ketoconazole, and the test compounds (SR-E, ST-B, and SS-A) were dissolved in sterile distilled water, 0.2N HCl, and 0.001N HCl, respectively. Each stock solution was diluted to 2× the highest concentration of drug tested with RPMI. Two-fold dilutions were made with RPMI medium.
# (§3) Preparation of Inoculum Suspensions: On Sabouraud dextose agar (SDA; BBL, Becton and Dickinson and Co., Cockeysville, Md.) all isolates were subcultured at least twice before use to ensure purity and viability. Candida spp. and Saccharomyces cerevisiae were grown for 24 hr at 35° C. Isolates of Cryptococcus neoformans were grown for 48 hr at 35° C. Yeast cells from at least five 1-mm-diameter colonies were suspended in 5 ml of sterile 0.85% saline. The resulting suspension was vortexed for 15 sec. The turbidity of each mixed suspension was measured at 530 nm and adjusted to 1×10^6 to 5×10^6 CFU/ml by the NCCLS spectrophotometric method described by National Committee for Clinical Laboratory Standards. 1992. Reference method for broth dilution antifungal susceptibility testing of yeasts; proposed standard, NCCLS document M27-P (ISBN 1-56238-186-5). NCCLS, Villanova. The final transmission of each yeast suspension ranged from 85-87%.
# (§4) Aspergillus fumigatus and Mucor spp. were grown for 1 wk at 35° C. The dermatophytes, Microsporum spp. and Trichophyton spp., were grown for two wk at 30° C. Fungal spores were washed from the plates of all good spore formers (A. fumigatus, Mucor spp., Microsporum canis and Trichophyton spp.) by placing 5 ml of 0.85% saline with 0.2% Tween 80 on the plates and mixing with an inoculating loop. The spore/mycelium suspension was drawn off with a pipette and allowed to settle for at least 5 min. For the poor spore-forming Microsporum audouinii, the procedure was the same except the spore/mycelial suspension was homogenized with a ground glass tissue homogenizer and then allowed to settle for at least 5 min. A small amount of the supernatant was transferred to 5 ml of sterile saline and vortexed. The stock suspensions of all filamentous fungi were measured at 530 nm and adjusted to 85-87% transmission. The concentration (1×10^6 to 5×10^6 CFU/ml) was determined by hemacytometer count or plate count on SDA. All stock suspensions were diluted 1000-fold with RPMI, or 2× the final desired test inocula. The 2× inoculum was diluted 1:1 when the wells were inoculated, and the desired inoculum size was achieved.
# (§5) Broth Microdilution Test: Broth microdilution tests were performed using sterile, disposable, multiwell microdilution plates (96 round U-bottom wells) (Falcon 3077; Becton and Dickinson Labware, Lincoln Park, N.J.). The drugs (2× concentrations) were dispensed into the wells of rows number 1 to 10 of the microdilution plates in 100 μl volumes from highest drug concentration to lowest drug concentration. Each well was inoculated with 100 μl of the corresponding 2× concentrated fungal suspension. The wells of row 11 contained the inoculum with drug-free media as a positive growth control and the wells of row 12 contained uninoculated-drug-free medium as a sterility control.
# (§6) Incubation and Scoring of MIC: All cultures were incubated without shaking at the temperature used during subculture. Incubation times were 48 hr for Candida spp., S. cerevisiae, A. fumigatus, and Mucor spp; 72 hr for C. neoformans; and 7 days for Microsporum and Trichophyton spp. […]
# Candida parapsilosis [1] = assay: Broth microdilution MIC; assay type: cell-based; settings: Table 1 (MICs), 2 isolates, 48 hr
# Experimental: as §1, §2, §3, §4, §5, §6
# Candida rugosa [2] = assay: Broth microdilution MIC; assay type: cell-based; settings: Table 1 (MICs); Candida rugosa, 2 isolates; 48 hr
# Experimental: as §1, §2, §3, §4, §5, §6
# Candida kefyr [3] = assay: Broth microdilution MIC; assay type: cell-based; settings: Table 1 (MICs), 1 isolate, 48 hr
# Experimental: as §1, §2, §3, §4, §5, §6
# Trichophyton spp. = assay: Broth microdilution MIC; assay type: cell-based; settings: Table 1 (MICs), 3 isolates, 7 days
# Experimental: as §1, §2, §3, §4, §5, §6
# Cryptococcus neoformans = assay: Broth microdilution MIC; assay type: cell-based; settings: Table 1 (MICs); Cryptococcus neoformans, 14 isolates; 72 hr
# Experimental: as §1, §2, §3, §4, §5, §6
# Microsporum spp. = assay: Broth microdilution MIC; assay type: cell-based; settings: Table 1 (MICs), 2 isolates, 7 days
# Experimental: as §1, §2, §3, §4, §5, §6
# Candida krusei [4] = assay: Broth microdilution MIC; assay type: cell-based; settings: Table 1 (MICs), 2 isolates, 48 hr
# Experimental: as §1, §2, §3, §4, §5, §6
# Candida tropicalis [5] = assay: Broth microdilution MIC; assay type: cell-based; settings: Table 1 (MICs); Candida tropicalis, 2 isolates; 48 hr
# Experimental: as §1, §2, §3, §4, §5, §6
# Candida lusitaniae [6] = assay: Broth microdilution MIC; assay type: cell-based; settings: Table 1 (MICs), 2 isolates, 48 hr
# Experimental: as §1, §2, §3, §4, §5, §6
# Saccharomyces cerevisiae [7] = assay: Broth microdilution MIC; assay type: cell-based; settings: Table 1 (MICs), 1 strain tested more than once (control ATCC 36375), 48 hr
# Experimental: as §1, §2, §3, §4, §5, §6
# Candida parapsilosis [8] = assay: Minimum Fungicidal Concentration (MFC); assay type: cell-based; settings: Table 2, 2 isolates, 24 hr
# Experimental: as §1, §2, §3, §4, §5, §6
# Candida rugosa [9] = assay: Minimum Fungicidal Concentration (MFC); assay type: cell-based; settings: Table 2, 2 isolates, 24 hr
# Experimental: as §1, §2, §3, §4, §5, §6
# Candida kefyr [10] = assay: Minimum Fungicidal Concentration (MFC); assay type: cell-based; settings: Table 2, 1 isolate, 24 hr
# Experimental: as §1, §2, §3, §4, §5, §6
# Candida krusei [11] = assay: Minimum Fungicidal Concentration (MFC); assay type: cell-based; settings: Table 2, 2 isolates, 24 hr
# Experimental: as §1, §2, §3, §4, §5, §6
# Candida tropicalis [12] = assay: Minimum Fungicidal Concentration (MFC); assay type: cell-based; settings: Table 2, 2 isolates, 24 hr
# Experimental: as §1, §2, §3, §4, §5, §6
# Candida lusitaniae [13] = assay: Minimum Fungicidal Concentration (MFC); assay type: cell-based; settings: Table 2, 2 isolates, 24 hr
# Experimental: as §1, §2, §3, §4, §5, §6
# Saccharomyces cerevisiae [14] = assay: Minimum Fungicidal Concentration (MFC); assay type: cell-based; settings: Table 2, 1 strain tested more than once, 24 hr
# Experimental: as §1, §2, §3, §4, §5, §6
# fungal isolates = assay: Fungicidal activity (MFC), fungal isolates overall; assay type: cell-based, fungi; settings: Table 2 organisms
# Experimental: as §1, §2
# Preparation of Inoculum Suspensions: On Sabouraud dextose agar (SDA; BBL, Becton and Dickinson and Co., Cockeysville, Md.) all isolates were subcultured at least twice before use to ensure purity and viability. […] The turbidity of each mixed suspension was measured at 530 nm and adjusted to 1×10^6 to 5×10^6 CFU/ml by the NCCLS spectrophotometric method described by National Committee for Clinical Laboratory Standards. […]
# Aspergillus fumigatus and Mucor spp. were grown for 1 wk at 35° C. […] The stock suspensions of all filamentous fungi were measured at 530 nm and adjusted to 85-87% transmission. The concentration (1×10^6 to 5×10^6 CFU/ml) was determined by hemacytometer count or plate count on SDA. […]
smiles,measurement,setting,value
"CC(=O)N1CCN(c2ccc(OCC3COC(Cn4ccnc4)(c4ccc(Cl)cc4Cl)O3)cc2)CC1 (centres unmarked) [Ktz, ketoconazole, reference compound]",MIC range,"Candida albicans; Table 1 (MICs), Candida albicans, 20 isolates, RPMI pH 7.0, 48 hr, Ktz read at score 2, others at score 0",0.02 to 10 mg/L
same,"MIC, one strain of C. albicans",Candida albicans; one strain of C. albicans resistant to ketoconazole,10 mg/L
same,MIC range,Candida parapsilosis [1],0.02 mg/L
same,MIC range,Candida rugosa [2],0.02 mg/L
same,MIC (μg/ml) range,Candida kefyr [3],0.02 µg/mL
same,MIC range,Trichophyton spp.,0.4 to 3.1 mg/L
same,MIC range,Cryptococcus neoformans,0.04 to 0.6 mg/L
same,MIC range,Microsporum spp.,0.8 to 1.6 mg/L
same,MIC (μg/ml) range,Candida krusei [4],0.15 µg/mL
same,MIC (μg/ml) range,Candida tropicalis [5],0.08 to 0.6 µg/mL
same,MIC range,Candida lusitaniae [6],0.02 mg/L
same,MFC (μg/ml) range,Saccharomyces cerevisiae [7],0.15 µg/mL
same,MFC (μg/ml) range,Candida parapsilosis [8],0.04 µg/mL
same,MFC (μg/ml) range,Candida rugosa [9],≤0.02 to 0.08 µg/mL
same,MFC (μg/ml) range,Candida kefyr [10],1.25 µg/mL
same,MFC (μg/ml) range,Candida krusei [11],0.15 µg/mL
same,MFC (μg/ml) range,Candida tropicalis [12],2.5 to 10 µg/mL
same,MFC (μg/ml) range,Candida lusitaniae [13],≤ 0.02 µg/mL
same,MFC (μg/ml) range,Saccharomyces cerevisiae [14],0.6 to 1.25 µg/mL
same,fungicidal activity,fungal isolates,fungicidal activity only against C. krusei
